Source: US8691822B2, “Dihydropteridinone derivatives, preparation process and pharmaceutical use thereof” (Jiangsu Hengrui Medicine Co., Ltd., priority 2009, dated 2014)

test system: human cervix cancer cells Hela; assay: Plk Cell Proliferation Inhibition Assay (CCK8, 72 hours); type: cell-based; settings: Hela cells highly expressing Plk
Description: The following in vitro assay is to determine the activity of the compounds of the present invention for inhibiting the proliferation of human cervix cancer cells Hela, which has high expression of Plk.
The in vitro cellular assay described here is to determine the activity of the tested compounds for inhibiting the proliferation of cancer cells, which has high expression of Plk. The activity is represented by the […]. The general procedures for the assay are given as follows: The Hela cells highly expressing Plk (Institute of biochemistry and cell biology) were seeded to 96-well cell culture plate at a suitable concentration (exp 3000 cells/ml medium). The cells then were cultured in carbon dioxide (CO2) incubator and grew overnight. Then, the cell culture medium was replaced by fresh one with tested compounds added in it at serial concentrations (general 7 to 9 concentrations). Then the cells were put back to the incubator and cultured for continuous 72 hours. 72 hours later, the activity of the tested compounds for inhibiting the cell proliferation was determined by using CCK8 (cell counting kit-8, Dojindo, NO:CK04) method. IC50 value on tested cells were calculated by the data of inhibition rates of serial concentrations of the tested compounds.

Row | Compound | IC50
1 | CC[C@@H]1C(=O)N(C)c2cnc(Nc3ccc(C(=O)NC[C@@H](O)CN4CCN(C)CC4)c4c3OC(C)(C)C4)nc2N1C1CCCC1 [Example 20, 7-[[(7R)-8-Cyclopentyl-7-ethyl-5-methyl-6-oxo-7H-pteridin-2-yl]amino]-N-[(2R)-3-(4-methylpiperazin-1-yl)-2-hydroxy-propyl]-2,2-dimethyl-3H-benzofuran-4-carboxamide] | 8 nM
2 | CC[C@@H]1C(=O)N(C)c2cnc(Nc3ccc(C(=O)NC4CCN(C)CC4)c4c3OCC4)nc2N1C(C)C [Example 22, 7-[[(7R)-7-Ethyl-8-isopropyl-5-methyl-6-oxo-7H-pteridin-2-yl]amino]-N-(1-methyl-4-piperidyl)-2,3-dihydrobenzofuran-4-carboxamide] | 2 nM
3 | CC[C@@H]1C(=O)N(C)c2cnc(Nc3ccc(C(=O)NC[C@@H](O)CN4CCN(C)CC4)c4c3OCC4)nc2N1C1CCCC1 [Example 25, 7-[[(7R)-8-Cyclopentyl-7-ethyl-5-methyl-6-oxo-7H-pteridin-2-yl]amino]-N-[(2R)-2-hydroxy-3-(4-methylpiperazin-1-yl)propyl]-2,3-dihydrobenzofuran-4-carboxamide] | 3 nM
4 | CC[C@@H]1C(=O)N(C)c2cnc(Nc3ccc(C(=O)NC[C@H]4CN5CCC[C@H]5CO4)c4c3OCC4)nc2N1C1CCCC1 [Example 26, N-[[(3S,8aS)-3,4,6,7,8,8a-Hexahydro-1H-pyrrolo[2,1-c][1,4]oxazin-3-yl]methyl]-7-[[(7R)-8-cyclopentyl-7-ethyl-5-methyl-6-oxo-7H-pteridin-2-yl]amino]-2,3-dihydrobenzofuran-4-carboxamide] | 3 nM
5 | CC[C@@H]1C(=O)N(C)c2cnc(Nc3ccc(C(=O)NC[C@@H]4CN5CCC[C@@H]5CO4)c4c3OCC4)nc2N1C1CCCC1 [Example 28, N-[[(3R,8aR)-3,4,6,7,8,8a-Hexahydro-1H-pyrrolo[2,1-c][1,4]oxazin-3-yl]methyl]-7-[[(7R)-8-cyclopentyl-7-ethyl-5-methyl-6-oxo-7H-pteridin-2-yl]amino]-2,3-dihydrobenzofuran-4-carboxamide] | 3 nM
6 | CC[C@@H]1C(=O)N(C)c2cnc(Nc3ccc(C(=O)NC4CCN(C)CC4)c4c3OC(C)C4)nc2N1C1CCCC1 (stereo partly drawn) [Example 30, 7-[[(7R)-8-Cyclopentyl-7-ethyl-5-methyl-6-oxo-7H-pteridin-2-yl]amino]-2-methyl-N-(1-methyl-4-piperidyl)-2,3-dihydrobenzofuran-4-carboxamide] | 4 nM
7 | CC[C@@H]1C(=O)N(C)c2cnc(Nc3ccc(C(=O)N[C@H]4CC[C@H](N5CCN(CC6CC6)CC5)CC4)c4c3OCC4)nc2N1C1CCCC1 [Example 34, 7-[[(7R)-8-Cyclopentyl-7-ethyl-5-methyl-6-oxo-7H-pteridin-2-yl]amino]-N-[(trans)-4-[4-(cyclopropylmethyl)piperazin-1-yl]cyclohexyl]-2,3-dihydrobenzofuran-4-carboxamide] | 0.7 nM
8 | CC[C@@H]1C(=O)N(C)c2cnc(Nc3ccc(C(=O)NC[C@@H](CN4CCN(CC5CC5)CC4)OC)c4c3OCC4)nc2N1C1CCCC1 [Example 35, 7-[[(7R)-8-Cyclopentyl-7-ethyl-5-methyl-6-oxo-7H-pteridin-2-yl]amino]-N-[(2S)-3-[4-(cyclopropylmethyl)piperazin-1-yl]-2-methoxy-propyl]-2,3-dihydrobenzofuran-4-carboxamide] | 2 nM
9 | CC[C@@H]1C(=O)N(C)c2cnc(Nc3ccc(C(=O)NC[C@@H](CN4CCN(CC5CC5)CC4)OC)c4c3OCC4)nc2N1C(C)C [Example 36, N-[(2S)-3-[4-(Cyclopropylmethyl)piperazin-1-yl]-2-methoxy-propyl]-7-[[(7R)-7-ethyl-8-isopropyl-5-methyl-6-oxo-7H-pteridin-2-yl]amino]-2,3-dihydrobenzofuran-4-carboxamide] | 7 nM
10 | CC[C@@H]1C(=O)N(C)c2cnc(Nc3ccc(C(=O)NC[C@@H](CN4CCN(C)CC4)OC)c4c3OCC4)nc2N1C(C)C [Example 39, 7-[[(7R)-7-Ethyl-8-isopropyl-5-methyl-6-oxo-7H-pteridin-2-yl]amino]-N-[(2S)-2-methoxy-3-(4-methylpiperazin-1-yl)propyl]-2,3-dihydrobenzofuran-4-carboxamide] | 6 nM
11 | CC[C@@H]1C(=O)N(C)c2cnc(Nc3ccc(C(=O)N[C@H]4CC[C@@H](N5CCN(CC6CC6)CC5)CC4)c4c3OCC4)nc2N1C(C)C [Example 44, N-[(cis)-4-[4-(Cyclopropylmethyl)piperazin-1-yl]cyclohexyl]-7-[[(7R)-7-ethyl-8-isopropyl-5-methyl-6-oxo-7H-pteridin-2-yl]amino]-2,3-dihydrobenzofuran-4-carboxamide] | 5 nM

The remaining compounds from weak to strong by IC50, led by results:

Row | IC50 | Compound
12 | 30 nM | CC[C@@H]1C(=O)N(C)c2cnc(Nc3ccc(C(=O)NC4CCN(C)CC4)c4c3OC(CN(C)C)C4)nc2N1C1CCCC1 (stereo partly drawn) [Example 29, 7-[[(7R)-8-Cyclopentyl-7-ethyl-5-methyl-6-oxo-7H-pteridin-2-yl]amino]-2-(dimethylaminomethyl)-N-(1-methyl-4-piperidyl)-2,3-dihydrobenzofuran-4-carboxamide]
13 | 9 nM | CC[C@@H]1C(=O)N(C)c2cnc(Nc3ccc(C(=O)NC[C@H](O)CN4CCN(C)CC4)c4c3OCC4)nc2N1C(C)C [Example 32, 7-[[(7R)-7-Ethyl-8-isopropyl-5-methyl-6-oxo-7H-pteridin-2-yl]amino]-N-[(2S)-2-hydroxy-3-(4-methylpiperazin-1-yl)propyl]-2,3-dihydrobenzofuran-4-carboxamide]
14 | 7 nM | CC[C@@H]1C(=O)N(C)c2cnc(Nc3ccc(C(=O)NC[C@H](O)CN4CCN(C)CC4)c4c3OC(C)(C)C4)nc2N1C1CCCC1 [Example 21, 7-[[(7R)-8-Cyclopentyl-7-ethyl-5-methyl-6-oxo-7H-pteridin-2-yl]amino]-N-[(2S)-3-(4-methylpiperazin-1-yl)-2-hydroxy-propyl]-2,2-dimethyl-3H-benzofuran-4-carboxamide]
15 | 7 nM | CC[C@@H]1C(=O)N(C)c2cnc(Nc3ccc(C(=O)NC[C@@H](O)CN4CCN(C)CC4)c4c3OCC4)nc2N1C(C)C [Example 33, 7-[[(7R)-7-Ethyl-8-isopropyl-5-methyl-6-oxo-7H-pteridin-2-yl]amino]-N-[(2R)-2-hydroxy-3-(4-methylpiperazin-1-yl)propyl]-2,3-dihydrobenzofuran-4-carboxamide]
16 | 2 nM | CC[C@@H]1C(=O)N(C)c2cnc(Nc3ccc(C(=O)N[C@H]4C[C@@H]5CN(C)C[C@@H]5C4)c4c3OCC4)nc2N1C(C)C [Example 24, (cis-endo)-N-[2-Methyl-3,3a,4,5,6,6a-hexahydro-1H-cyclopenta[c]pyrrol-5-yl]-7-[[(7R)-7-ethyl-8-isopropyl-5-methyl-6-oxo-7H-pteridin-2-yl]amino]-2,3-dihydrobenzofuran-4-carboxamide]
17 | 2 nM | CC[C@@H]1C(=O)N(C)c2cnc(Nc3ccc(C(=O)NC[C@@H](CN4CCN(C)CC4)OC)c4c3OCC4)nc2N1C1CCCC1 [Example 38, 7-[[(7R)-8-Cyclopentyl-7-ethyl-5-methyl-6-oxo-7H-pteridin-2-yl]amino]-N-[(2S)-2-methoxy-3-(4-methylpiperazin-1-yl)propyl]-2,3-dihydrobenzofuran-4-carboxamide]
18 | 2 nM | CC[C@@H]1C(=O)N(C)c2cnc(Nc3ccc(C(=O)NC4CCN(C)CC4)c4c3OC(COC)C4)nc2N1C1CCCC1 (stereo partly drawn) [Example 40, 7-[[(7R)-8-Cyclopentyl-7-ethyl-5-methyl-6-oxo-7H-pteridin-2-yl]amino]-2-(methoxymethyl)-N-(1-methyl-4-piperidyl)-2,3-dihydrobenzofuran-4-carboxamide]
19 | 1 nM | CC[C@@H]1C(=O)N(C)c2cnc(Nc3ccc(C(=O)NC[C@H]4CN5CCC[C@@H]5CO4)c4c3OCC4)nc2N1C1CCCC1 [Example 27, N-[[(3S,8aR)-3,4,6,7,8,8a-Hexahydro-1H-pyrrolo[2,1-c][1,4]oxazin-3-yl]methyl]-7-[[(7R)-8-cyclopentyl-7-ethyl-5-methyl-6-oxo-7H-pteridin-2-yl]amino]-2,3-dihydrobenzofuran-4-carboxamide]
